Measured values as given in patent publication US20240327382A1 (ALMAC DISCOVERY LIMITED, priority 2021, published 2024).

biological target: T1, Full-length USP19 (Homo sapiens, UniProt O94966); test: USP19 fluorescence polarisation (FP) assay, Ubiquitin-Lys-TAMRA substrate; type: biochemical; settings: average of at least two duplicate experiments
T1 construct: Full-length USP19 was purchased from Boston Biochem (E-576); purchased Boston Biochem E-576
T1 sequence (O94966 1-1318): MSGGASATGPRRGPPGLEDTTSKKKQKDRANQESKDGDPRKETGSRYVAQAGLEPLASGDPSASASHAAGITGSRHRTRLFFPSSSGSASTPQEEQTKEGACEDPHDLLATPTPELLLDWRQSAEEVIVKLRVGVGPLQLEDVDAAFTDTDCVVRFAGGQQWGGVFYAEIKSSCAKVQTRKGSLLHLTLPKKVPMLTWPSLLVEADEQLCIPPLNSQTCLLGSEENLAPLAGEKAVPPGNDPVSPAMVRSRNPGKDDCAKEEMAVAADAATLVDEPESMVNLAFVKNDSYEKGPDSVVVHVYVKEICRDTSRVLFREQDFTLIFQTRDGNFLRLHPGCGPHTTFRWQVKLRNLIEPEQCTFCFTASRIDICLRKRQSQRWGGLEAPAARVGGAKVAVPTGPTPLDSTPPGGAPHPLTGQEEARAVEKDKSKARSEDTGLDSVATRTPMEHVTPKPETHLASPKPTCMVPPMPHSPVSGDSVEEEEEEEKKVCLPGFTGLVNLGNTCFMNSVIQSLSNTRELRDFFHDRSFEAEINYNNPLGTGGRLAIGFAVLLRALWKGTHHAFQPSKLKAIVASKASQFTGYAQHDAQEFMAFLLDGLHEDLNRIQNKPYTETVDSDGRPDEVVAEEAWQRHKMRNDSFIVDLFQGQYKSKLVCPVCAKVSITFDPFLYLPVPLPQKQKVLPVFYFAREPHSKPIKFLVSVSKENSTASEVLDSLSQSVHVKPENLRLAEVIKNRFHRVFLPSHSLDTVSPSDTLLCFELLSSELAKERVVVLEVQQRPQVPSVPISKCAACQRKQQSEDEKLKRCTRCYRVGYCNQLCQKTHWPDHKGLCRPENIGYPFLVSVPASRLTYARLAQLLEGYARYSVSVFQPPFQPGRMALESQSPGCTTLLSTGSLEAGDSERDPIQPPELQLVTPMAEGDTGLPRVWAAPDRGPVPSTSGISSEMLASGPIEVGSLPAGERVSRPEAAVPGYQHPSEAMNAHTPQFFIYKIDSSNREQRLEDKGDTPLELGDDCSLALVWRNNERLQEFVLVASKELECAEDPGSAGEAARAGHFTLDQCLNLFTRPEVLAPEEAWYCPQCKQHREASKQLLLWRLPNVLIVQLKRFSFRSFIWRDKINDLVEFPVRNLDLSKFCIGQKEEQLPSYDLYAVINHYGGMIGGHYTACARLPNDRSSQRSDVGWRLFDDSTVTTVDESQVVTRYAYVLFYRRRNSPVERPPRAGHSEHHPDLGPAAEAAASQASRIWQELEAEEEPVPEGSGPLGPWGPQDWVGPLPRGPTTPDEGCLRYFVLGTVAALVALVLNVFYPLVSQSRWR
In short: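 Full-length human USP19 (added at 2.5 nM) was preincubated 30 min at RT with inhibitor (serial dilutions 200 μM to 2 μM) in 50 mM HEPES pH 7.4, 150 mM NaCl, 5 mM DTT, 0.05% BSA, 0.05% CHAPS. Ubiquitin-Lys-TAMRA isopeptide substrate (added at 500 nM) started the reaction, and FP (Ex 530/Em 575 nm) was read every 15 min over 90 min. IC50 came from non-linear regression of signal normalised to no-compound control, averaged over at least two duplicate experiments.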

Row | SMILES | IC50 [nM]
1 | COc1ccccc1-c1cc(=O)n(C[C@@H]2CCN(C(=O)N3CCNC[C@H]3c3cccc(F)c3)CC23CCCC3)cn1 [Example 115, 3-(((R)-7-((R)-2-(3-Fluorophenyl)piperazine-1-carbonyl)-7-azaspiro[4.5]decan-10-yl)methyl)-6-(2-methoxyphenyl)pyrimidin-4(3H)-one] | < 10
2 | COc1ccccc1-c1cc(=O)n(C[C@@H]2CCN(C(=O)N3CCNC[C@H]3c3cc(F)ccc3F)CC23CCCC3)cn1 [Example 116, 3-(((R)-7-((R)-2-(2,5-Difluorophenyl)piperazine-1-carbonyl)-7-azaspiro[4.5]decan-10-yl)methyl)-6-(2-methoxyphenyl)pyrimidin-4(3H)-one] | < 10
3 | CN[C@@H]1CCN(C(=O)N2CC[C@@H](Cn3ccc(-c4ccccc4OC)cc3=O)C3(CCCC3)C2)[C@H](c2ccccc2F)C1 [Example 118, 1-(((R)-7-((2S,4R)-2-(2-Fluorophenyl)-4-(methylamino)piperidine-1-carbonyl)-7-azaspiro[4.5]decan-10-yl)methyl)-4-(2-methoxyphenyl)pyridin-2(1H)-one] | < 10
4 | CN[C@@H]1CCN(C(=O)N2CC[C@@H](Cn3ccc(-c4ccccc4OC)cc3=O)C3(CCCC3)C2)[C@H](c2ccc(F)cc2)C1 [Example 120, 1-(((R)-7-((2S,4R)-2-(4-Fluorophenyl)-4-(methylamino)piperidine-1-carbonyl)-7-azaspiro[4.5]decan-10-yl)methyl)-4-(2-methoxyphenyl)pyridin-2(1H)-one] | < 10
5 | CN[C@@H]1CCN(C(=O)N2CC[C@@H](Cn3ccc(Cl)cc3=O)C3(CCCC3)C2)[C@H](c2cc(F)ccc2F)C1 [Example 123, 4-Chloro-1-(((R)-7-((2S,4R)-2-(2,5-difluorophenyl)-4-(methylamino)piperidine-1-carbonyl)-7-azaspiro[4.5]decan-10-yl)methyl)pyridin-2(1H)-one] | < 10
6 | CN[C@@H]1CCN(C(=O)N2CC[C@@H](Cn3cnc4ccc(F)cc4c3=O)C3(CCCC3)C2)[C@H](c2cc(F)ccc2F)C1 [Example 125, 3-(((R)-7-((2S,4R)-2-(2,5-Difluorophenyl)-4-(methylamino)piperidine-1-carbonyl)-7-azaspiro[4.5]decan-10-yl)methyl)-6-fluoroquinazolin-4(3H)-one] | < 10
7 | CN[C@@H]1CCN(C(=O)N2CC[C@@H](Cn3cccnc3=O)C3(CCCC3)C2)[C@H](c2ccc(F)cc2F)C1 [Example 128, 1-(((R)-7-((2S,4R)-2-(2,4-Difluorophenyl)-4-(methylamino)piperidine-1-carbonyl)-7-azaspiro[4.5]decan-10-yl)methyl)pyrimidin-2(1H)-one] | 100 to 1000
8 | CN[C@@H]1CCN(C(=O)N2CC[C@@H](Cn3ncccc3=O)C3(CCCC3)C2)[C@H](c2ccc(F)cc2F)C1 [Example 129, 2-(((R)-7-((2S,4R)-2-(2,4-Difluorophenyl)-4-(methylamino)piperidine-1-carbonyl)-7-azaspiro[4.5]decan-10-yl)methyl)pyridazin-3(2H)-one] | 10 to 100
9 | CN[C@@H]1CCN(C(=O)N2CC[C@@H](Cn3cnc(C(F)F)cc3=O)C3(CCCC3)C2)[C@H](c2ccc(F)cc2F)C1 [Example 130, 6-(Difluoromethyl)-3-(((R)-7-((2S,4R)-2-(2,4-difluorophenyl)-4-(methylamino)piperidine-1-carbonyl)-7-azaspiro[4.5]decan-10-yl)methyl)pyrimidin-4(3H)-one] | < 10
10 | CN[C@@H]1CCN(C(=O)N2CC[C@@H](Cn3ccc(-c4ccccc4OC)cc3=O)C3(CCCC3)C2)[C@H](c2cccc(F)c2F)C1 [Example 131, 1-(((R)-7-((2S,4R)-2-(2,3-Difluorophenyl)-4-(methylamino)piperidine-1-carbonyl)-7-azaspiro[4.5]decan-10-yl)methyl)-4-(2-methoxyphenyl)pyridin-2(1H)-one] | < 10
11 | CN[C@@H]1CCN(C(=O)N2CC[C@@H](Cn3cnc(-c4ccccc4)cc3=O)C3(CCCC3)C2)[C@H](c2cccc(F)c2F)C1 [Example 132, 3-(((R)-7-((2S,4R)-2-(2,3-Difluorophenyl)-4-(methylamino)piperidine-1-carbonyl)-7-azaspiro[4.5]decan-10-yl)methyl)-6-phenylpyrimidin-4(3H)-one] | < 10

Continued, values first:

Row | IC50 [nM] | SMILES
12 | < 10 | CN[C@@H]1CCN(C(=O)N2CC[C@@H](Cn3cnc(-c4ccccc4OC)cc3=O)C3(CCCC3)C2)[C@H](c2ccc(F)cc2F)C1 [Example 117, 3-(((R)-7-((2S,4R)-2-(2,4-Difluorophenyl)-4-(methylamino)piperidine-1-carbonyl)-7-azaspiro[4.5]decan-10-yl)methyl)-6-(2-methoxyphenyl)pyrimidin-4(3H)-one]
13 | < 10 | CN[C@@H]1CCN(C(=O)N2CC[C@@H](Cn3cnc(-c4ccccc4C)cc3=O)C3(CCCC3)C2)[C@H](c2cccc(F)c2)C1 [Example 119, 3-(((R)-7-((2S,4R)-2-(3-Fluorophenyl)-4-(methylamino)piperidine-1-carbonyl)-7-azaspiro[4.5]decan-10-yl)methyl)-6-(0-tolyl)pyrimidin-4(3H)-one]
14 | < 10 | CN[C@@H]1CCN(C(=O)N2CC[C@@H](Cn3ccc(-c4ccccc4)cc3=O)C3(CCCC3)C2)[C@H](c2cc(F)cc(F)c2)C1 [Example 121, 1-(((R)-7-((2S,4R)-2-(3,5-Difluorophenyl)-4-(methylamino)piperidine-1-carbonyl)-7-azaspiro[4.5]decan-10-yl)methyl)-4-phenylpyridin-2(1H)-one]
15 | < 10 | CN[C@@H]1CCN(C(=O)N2CC[C@@H](Cn3cnc(-c4ccccc4)cc3=O)C3(CCCC3)C2)[C@H](c2cc(F)cc(F)c2)C1 [Example 122, 3-(((R)-7-((2S,4R)-2-(3,5-Difluorophenyl)-4-(methylamino)piperidine-1-carbonyl)-7-azaspiro[4.5]decan-10-yl)methyl)-6-phenylpyrimidin-4(3H)-one]
16 | < 10 | CN[C@@H]1CCN(C(=O)N2CC[C@@H](Cn3cnc(-c4ccccc4OC)cc3=O)C3(CCCC3)C2)[C@H](c2cc(F)cc(F)c2)C1 [Example 124, 3-(((R)-7-((2S,4R)-2-(3,5-Difluorophenyl)-4-(methylamino)piperidine-1-carbonyl)-7-azaspiro[4.5]decan-10-yl)methyl)-6-(2-methoxyphenyl)pyrimidin-4(3H)-one]
17 | < 10 | CN[C@@H]1CCN(C(=O)N2CC[C@@H](Cn3ccc(-c4ccccc4OC)cc3=O)C3(CCCC3)C2)[C@H](c2cc(F)cc(F)c2)C1 [Example 126, 1-(((R)-7-((2S,4R)-2-(3,5-Difluorophenyl)-4-(methylamino)piperidine-1-carbonyl)-7-azaspiro[4.5]decan-10-yl)methyl)-4-(2-methoxyphenyl)pyridin-2(1H)-one]
18 | < 10 | CN[C@@H]1CCN(C(=O)N2CC[C@@H](Cn3cnc(-c4ccccc4)cc3=O)C3(CCCC3)C2)[C@H](c2ccc(F)c(F)c2)C1 [Example 133, 3-(((R)-7-((2S,4R)-2-(3,4-Difluorophenyl)-4-(methylamino)piperidine-1-carbonyl)-7-azaspiro[4.5]decan-10-yl)methyl)-6-phenylpyrimidin-4(3H)-one]
19 | < 10 | COc1ccccc1-c1cc(=O)n(C[C@@H]2CCN(C(=O)N3CC[C@@H](NCC(F)F)C[C@H]3c3cc(F)ccc3F)CC23CCCC3)cn1 [Example 134, 3-(((R)-7-((2S,4R)-4-((2,2-Difluoroethyl)amino)-2-(2,5-difluorophenyl)piperidine-1-carbonyl)-7-azaspiro[4.5]decan-10-yl)methyl)-6-(2-methoxyphenyl)pyrimidin-4(3H)-one]
